Laboratory results taken from patent publication US20110038948A1, “Methods of Reducing the Production of Reactive Oxygen Species and Methods of Screening or Identifying Compounds and Compositions that Reduce the Production of Reactive Oxygen Species” (UNIVERSITY OF TENNESSEE RESEARCH FOUNDATION, priority 2005, published 2011).

Key:
Format in all cases: cell-based, mouse
[1] = test system: 3T3-L1 adipocytes; assay: Cell proliferation / DNA synthesis in cultured adipocytes (CyQUANT); settings: 48 hours
Method: 3T3-L1 preadipocytes were incubated at a density of 8000 cells/cm^2 (10 cm^2 dish) and grown in Dulbecco's modified Eagle's medium (DMEM) containing 10% FBS and antibiotics (adipocyte medium) at 37° C. in 5% CO2 in air. Confluent preadipocytes were induced to differentiate with a standard differentiation medium consisting of DMEM-F10 (1:1, vol/vol) medium supplemented with 1% FBS, 1 μM dexamethasone, IBMX (0.5 mM) and antibiotics (1% Penicillin-Streptomycin). Preadipocytes were maintained in this differentiation medium for 3 days and subsequently cultured in adipocyte medium. Cultures were re-fed every 2-3 days to allow 90% of cells to reach full differentiation before conducting chemical treatment. Chemicals were freshly diluted in adipocyte medium before treatment. Cells were washed with fresh adipocyte medium, re-fed with medium containing the different treatments, and incubated at 37° C. in 5% CO2 in air before analysis. Cell viability was measured via trypan blue exclusion. Cells were plated in DMEM with different treatment in duplicate in 96-well plates. After 48 h, a CyQUANT Cell Proliferation Kit (Molecular Probes, Eugene, Oreg.) was used following the manufacturer's protocol. a microplate fluorometer (Packard Instrument Company, Inc., Downers Grove, Ill.) was used to measure CyQUANT fluorescence. Cell viability was determined by Trypan blue exclusion examination.

[2] = test system: IL-6; assay: IL-6 expression in 3T3-L1 adipocytes
Method: 3T3-L1 pre-adipocytes were incubated at a density of 8000 cells/cm^2 (10 cm^2 dish) and grown in Dulbecco's modified Eagle's medium (DMEM) containing 10% FBS and antibiotics (adipocyte medium) at 37° C. in 5% CO2 in air. Confluent pre-adipocytes were induced to differentiate with a standard differentiation medium consisting of DMEM-F10 (1:1, vol/vol) medium supplemented with 1% fetal bovine serum (FBS), 1 μM dexamethasone, isobutylmethylxanthine (IBMX) (0.5 mM) and antibiotics (1% Penicillin-Streptomycin). Pre-adipocytes were maintained in this differentiation medium for 3 days and subsequently cultured in adipocyte medium. Cultures were re-fed every 2-3 days to allow 90% cells to reach fully differentiation before conducting chemical treatment.
Cells were incubated in serum free medium overnight before chemical treatment. Chemicals were freshly diluted in adipocyte medium before treatment. […] Cell viability was measured via trypan blue exclusion.
Adipocyte and muscle 18s, TNFα, IL-6, IL-8, IL-15 and adiponectin were quantitatively measured using a smart cycler real-time PCR system (Cepheid, Sunnyvale, Calif.) with a TaqMan 1000 Core Reagent Kit (Applied Biosystems, Branchburg, N.J.). […] Reactions of quantitative RT-PCR for standards and unknown samples were also performed according to the instructions of Smart Cycler System (Cepheid, Sunnyvale, Calif.) and TaqMan Real Time PCR Core Kit (Applied Biosystems, Branchburg, N.J.). The mRNA quantitation for each sample was further normalized using the corresponding 18s quantitation. […]
Adipocyte and muscle 18s, CD14, TNFα, MIP, M-CSF, IL-6 and MCP-1 were quantitatively measured using a Smart Cycler Real Time PCR System (Cepheid, Sunnyvale, Calif.) with a TaqMan 1000 Core Reagent Kit (Applied Biosystems, Branchburg, N.J.). […] Reactions of quantitative RT-PCR for standards and unknown samples were also performed according to the instructions of Smart Cycler System (Cepheid, Sunnyvale, Calif.) and TaqMan Real Time PCR Core Kit (Applied Biosystems, Branchburg, N.J.). […]

[3] = test system: 3T3-L1 adipocytes; assay: Mitochondrial membrane potential (JC-1); settings: H2O2 100 nmol/L, 48 hours
Method: 3T3-L1 preadipocytes were incubated at a density of 8000 cells/cm^2 (10 cm^2 dish) and grown in Dulbecco's modified Eagle's medium (DMEM) containing 10% FBS and antibiotics (adipocyte medium) at 37° C. in 5% CO2 in air. Confluent preadipocytes were induced to differentiate with a standard differentiation medium consisting of DMEM-F10 (1:1, vol/vol) medium supplemented with 1% FBS, 1 μM dexamethasone, IBMX (0.5 mM) and antibiotics (1% Penicillin-Streptomycin). Preadipocytes were maintained in this differentiation medium for 3 days and subsequently cultured in adipocyte medium. Cultures were re-fed every 2-3 days to allow 90% of cells to reach full differentiation before conducting chemical treatment. Chemicals were freshly diluted in adipocyte medium before treatment. […] Cell viability was measured via trypan blue exclusion.
Mitochondrial membrane potential was analyzed fluorometrically with a lipophilic cationic dye JC-1 (5,5′,6,6′-tetrachloro-1,1′,3,3′-tetraethylbenzimidazol carbocyanine iodide) using a mitochondrial potential detection kit (Biocarta, San Diego, Calif.). Mitochondrial potential was determined as the ratio of red fluorescence (excitation 550 nm, emission 600 nm) and green fluorescence (excitation 485 nm, emission 535 nm) using a fluorescence microplate reader.

SMILES: OO [H2O2, hydrogen peroxide]
- increase in total DNA of cultured cells ([1]; H2O2 100 nmol/L, p<0.001): 39%
- increase in IL-6 expression ([2]; 100 nmol/L H2O2, 48 h, p<0.001): 167%
- increase in mitochondrial potential [3]: 72%

SMILES: C=C1/C(=C\C=C2/CCC[C@]3(C)[C@@H]([C@H](C)CCCC(C)(C)O)CC[C@@H]23)C[C@@H](O)C[C@@H]1O [calcitriol, 1,25-(OH)2-D3]
- effect on glucose induced DNA synthesis ([1]; compound plus glucose 30 mmol/L): augmented
- effect on IL-6 expression ([2]; 10 nmol/L 1α, 25-(OH)2-D3, 48 h): markedly increased
- effect on IL-6 expression ([2]; calcitriol 10 nmol/L, 48 hours (Example 4)): markedly stimulate
